Results reported in patent US20210246157A1, “CAMPTOTHECIN DERIVATIVES AND PREPARATION METHODS AND APPLICATIONS THEREOF” (priority 2018, published 2021).
Values after ≈ are worked out from the molar mass of the structure shown.

Key:
[1] = Solubility test, equilibrium method, UV-visible spectrophotometry; format: physicochemical; settings: thermodynamic from solid
Procedure: The solubility test is carried out by equilibrium method. […] An appropriate amount of the compound is weighed and dissolved in 1 mL of methanol solution to prepare a control solution with a certain concentration (C0). The concentration of test solution is calculated according to the following formula: Cx=(Ax/A0)C0, wherein Cx is concentration of test solution, Ax is absorbance of test solution, C0 is concentration of control solution, and A0 is absorbance of control solution.

[2] = test system: colon cancer cells SW-480; assay: In vivo antitumor activity, tumor volume (Example 19); set-up: species or system mice; settings: for Mouse Tumor Volume: 13.73 mg/kg i.v. once every three days, average, n = 6
[3] = In vivo antitumor activity study, mouse weight (Example 19); set-up: species or system mice; settings: 13.73 mg/kg i.v. once every three days
[4] = Multi-dose in vivo antitumor activity study, mouse weight (Example 20); set-up: species or system mice; settings: caudal vein once every 2 days
Procedure: The drugs are administered through the caudal veins of mice once every 2 days for a total of 7 times.
At the end of the treatment cycle, the orbital venous blood of the mice is collected for later blood routine test, the mice are killed by cervical dislocation method, and tumors are removed immediately and photographed. From day 0, the mice in each group are weighed every three days, and the weights are recorded. The weight average value of each group is calculated, and mouse weight variation curve is drawn according to statistical data. At the end of the treatment cycle, tumors are removed from anesthetized mice immediately and weighted, and the tumor weight of each group is recorded. The tumor inhibition rate (%) is calculated according to the following formula: […]

[5] = test system: SW-480; assay: Cytotoxicity test (MTT, 72 h); settings: Homo sapiens, SW480, 72 h, read-out: 50% Inhibiting Concentration value (IC50)
Procedure: (§1) Cells at logarithmic growth period are inoculated in a 96-well plate overnight, then drugs with a certain gradient concentrations are added, and incubation is carried out in a cell culture chamber (5% CO2, 37° C.) for 72 h.

[6] = test system: HT-29; assay: Cytotoxicity test (MTT, 72 h); settings: Homo sapiens, HT-29, 72 h, read-out: 50% Inhibiting Concentration value (IC50)
Procedure: as §1

[7] = test system: HCT-116; assay: Cytotoxicity test (MTT, 72 h); settings: Homo sapiens, HCT-116, 72 h, read-out: 50% Inhibiting Concentration value (IC50)
Procedure: (§2) In order to investigate the antitumor activities of the compounds, a variety of tumor cell lines for test are selected. Cells at logarithmic growth period are inoculated in a 96-well plate overnight, then drugs with a certain gradient concentrations are added, and incubation is carried out in a cell culture chamber (5% CO2, 37° C.) for 72 h.

[8] = test system: A549; assay: Cytotoxicity test (MTT, 72 h); settings: Homo sapiens, A549, 72 h, read-out: 50% Inhibiting Concentration value (IC50)
Procedure: as §2

[9] = test system: H1975; assay: Cytotoxicity test (MTT, 72 h); settings: Homo sapiens, NCI-H1975, 72 h, read-out: 50% Inhibiting Concentration value (IC50)
Procedure: as §2

[10] = test system: HepG2; assay: Cytotoxicity test (MTT, 72 h); settings: Homo sapiens, HepG2, 72 h, read-out: 50% Inhibiting Concentration value (IC50)
Procedure: as §2

[11] = test system: BGC-823; assay: Cytotoxicity test (MTT, 72 h); settings: Homo sapiens, BGC-823, 72 h, read-out: 50% Inhibiting Concentration value (IC50)
Procedure: as §2

[12] = test system: ECA-109; assay: Cytotoxicity test (MTT, 72 h); settings: Homo sapiens, ECa-109, 72 h, read-out: 50% Inhibiting Concentration value (IC50)
Procedure: as §2

[13] = test system: K562; assay: Cytotoxicity test (MTT, 72 h); settings: Homo sapiens, K562, 72 h, read-out: 50% Inhibiting Concentration value (IC50)
Procedure: as §2

[14] = test system: PC3; assay: Cytotoxicity test (MTT, 72 h); settings: Homo sapiens, PC-3, 72 h, read-out: 50% Inhibiting Concentration value (IC50)
Procedure: as §2

[15] = test system: 143B; assay: Cytotoxicity test (MTT, 72 h); settings: Homo sapiens, read-out: 50% Inhibiting Concentration value (IC50)
Procedure: as §2

[16] = test system: Hela; assay: Cytotoxicity test (MTT, 72 h); settings: Homo sapiens, read-out: 50% Inhibiting Concentration value (IC50)
Procedure: as §2

[17] = test system: TPC-1; assay: Cytotoxicity test (MTT, 72 h); settings: Homo sapiens, TPC1, 72 h, read-out: 50% Inhibiting Concentration value (IC50)
Procedure: as §1

[18] = test system: SKOV-3; assay: Cytotoxicity test (MTT, 72 h); settings: Homo sapiens, SK-OV-3, 72 h, read-out: 50% Inhibiting Concentration value (IC50)
Procedure: as §1

[19] = test system: PANC-1; assay: Cytotoxicity test (MTT, 72 h); settings: Homo sapiens, PANC-1, 72 h, read-out: 50% Inhibiting Concentration value (IC50)
Procedure: as §1

## CCc1c2c(nc3ccc(OC(=O)OCCOCCOCCOCc4cn(CCO[C@H]5O[C@@H](CO)[C@H](O)[C@@H](O)[C@@H]5O)nn4)cc13)-c1cc3c(c(=O)n1C2)COC(=O)[C@]3(O)CC [Compound 58]
[1]; aqueous with cosolvent or surfactant or cyclodextrin
  solubility: 5330 µg/mL (≈ 6.23 mM)
[1]; pH 7.4, aqueous buffer
  solubility: 1580 µg/mL (≈ 1.84 mM)
[1]; saline or isotonic
  solubility: 3590 µg/mL (≈ 4.2 mM)
[1]; water
  solubility: 2550 µg/mL (≈ 2.98 mM)
[2]; day 0
  Mouse Tumor Volume: 235.22 mm^3
[2]; day 3
  Mouse Tumor Volume: 202.08 mm^3
[2]; day 6
  Mouse Tumor Volume: 98.87 mm^3
[2]; day 9
  Mouse Tumor Volume: 118.41 mm^3
[2]; day 12
  Mouse Tumor Volume: 80.63 mm^3
[2]; day 15
  Mouse Tumor Volume: 38.37 mm^3
[2]; day 18
  Mouse Tumor Volume: 40.03 mm^3
[2]; day 21
  Mouse Tumor Volume: 7.16 mm^3
[2]; dosage two-thirds of the molar fraction of CPT-11
  inhibition rates on colon cancer cell SW-480 compared with CPT-11 (in words): significantly higher inhibition rates
[3]; day 0
  Mouse Weight: 23.57 g
[3]; day 3
  Mouse Weight: 23.71 g
[3]; day 6
  Mouse Weight: 24.00 g
[3]; day 9
  Mouse Weight: 24.76 g
[3]; day 12
  Mouse Weight: 24.93 g
[3]; day 15
  Mouse Weight: 24.34 g
[3]; day 18
  Mouse Weight: 24.04 g
[3]; day 21
  Mouse Weight: 24.12 g
[4]; day 0, high-dose group (H) 13.73 mg/kg
  Mouse Weight: 16.69 g
[4]; day 0, low-dose group (L) 3.433 mg/kg
  Mouse Weight: 17.94 g
[4]; day 0, medium-dose group (M) 6.865 mg/kg
  Mouse Weight: 16.55 g
[4]; day 3, high-dose group (H) 13.73 mg/kg
  Mouse Weight: 17.60 g
[4]; day 3, low-dose group (L) 3.433 mg/kg
  Mouse Weight: 16.34 g
[4]; day 3, medium-dose group (M) 6.865 mg/kg
  Mouse Weight: 16.61 g
[4]; day 6, high-dose group (H) 13.73 mg/kg
  Mouse Weight: 16.26 g
[4]; day 6, low-dose group (L) 3.433 mg/kg
  Mouse Weight: 16.36 g
[4]; day 6, medium-dose group (M) 6.865 mg/kg
  Mouse Weight: 15.81 g
[4]; day 9, high-dose group (H) 13.73 mg/kg
  Mouse Weight: 17.28 g
[4]; day 9, low-dose group (L) 3.433 mg/kg
  Mouse Weight: 17.00 g
[4]; day 9, medium-dose group (M) 6.865 mg/kg
  Mouse Weight: 17.23 g
[4]; day 12, high-dose group (H) 13.73 mg/kg
  Mouse Weight: 16.88 g
[4]; day 12, low-dose group (L) 3.433 mg/kg
  Mouse Weight: 16.96 g
[4]; day 12, medium-dose group (M) 6.865 mg/kg
  Mouse Weight: 16.17 g
[4]; day 15, high-dose group (H) 13.73 mg/kg
  Mouse Weight: 16.61 g
[4]; day 15, low-dose group (L) 3.433 mg/kg
  Mouse Weight: 16.41 g
[4]; day 15, medium-dose group (M) 6.865 mg/kg
  Mouse Weight: 15.46 g
[4]; day 18, high-dose group (H) 13.73 mg/kg
  Mouse Weight: 16.06 g
[4]; day 18, low-dose group (L) 3.433 mg/kg
  Mouse Weight: 17.28 g
[4]; day 18, medium-dose group (M) 6.865 mg/kg
  Mouse Weight: 16.47 g
[4]; day 21, high-dose group (H) 13.73 mg/kg
  Mouse Weight: 16.50 g
[4]; day 21, low-dose group (L) 3.433 mg/kg
  Mouse Weight: 16.97 g
[4]; day 21, medium-dose group (M) 6.865 mg/kg
  Mouse Weight: 16.65 g
[5]
  IC50: 0.254 µM
[6]
  IC50: 5.25 µM
[7]
  IC50: 2 µM
[8]
  IC50: 3.04 µM
[9]
  IC50: 9.35 µM
[10]
  IC50: 0.625 µM
[11]
  IC50: 0.212 µM
[12]
  IC50: 4.38 µM
[13]
  IC50: 1.66 µM
[14]
  IC50: 2.53 µM
[15]
  IC50: 7.79 µM
[16]
  IC50: 3.65 µM
[17]
  IC50: 11.2 µM
[18]
  IC50: 0.75 µM
[19]
  IC50: 3.65 µM
